Reference: patent US10646600B2, “HER2 polypeptides useful for imaging and monitoring tumors and cancers” (GE HEALTHCARE LIMITED, priority 2013, dated 2020)

How the values were obtained:
SKOV-3 xenografts = assay: PET-CT imaging and kinetic modeling, SKOV-3 xenografts; type: in vivo, mice
Description: […] […] To investigate response to HSP90 inhibition, SKOV-3 xenograft-bearing mice were treated with 50 mg/kg NVP-AUY922 or equivalent volume of vehicle (˜5 μL/g body weight; 10% DMSO and 5% Tween-20 in PBS) q.d. i.p. for three days. 24 h after the last treatment, animals were used for PET imaging.
Mice were anesthetized through isoflurane inhalation and scanned on a dedicated small animal PET-CT scanner (Siemens Multimodality Inveon, Erlangen, Germany). Low dose CT scans were first acquired (80 kVp, 0.5 mA, 220 degree rotation, 600 ms per degree exposure time, 80 μm reconstruction pixel size) for PET attenuation correction and to obtain an anatomical reference. PET images were acquired following a bolus i.v. injection of approximately 3.7 MBq [^18F]GE-226 in the tail vein. Dynamic emission scans were acquired in list mode format over 60 minutes. The acquired data were sorted into 0.5-mm sinogram bins and 19 time frames for image reconstruction by filtered back projection (4×15 seconds and 4×60 seconds followed by 11×300 seconds). The Siemens Inveon Research Workplace software was used for visualization of radiotracer uptake. 30 to 60-minute cumulative images of the dynamic data were employed to define 3-dimensional (3D) regions of interest (ROI). Arterial input function was estimated by drawing ROIs over the center of the heart cavity using 0.25 to 2 minutes of cumulative images. The count densities were averaged for all ROIs at each time point to obtain time versus radioactivity curves (TAC). Tumor TACs were normalized to injected dose measured by a VDC-304 dose calibrator (Veenstra Instruments, Joure, Netherlands) and normalized uptake was expressed as percentage injected dose per mL tissue (NUV; % ID/mL). Normalized uptake of radiotracer at 60 minutes (NUV60) was used for comparisons. For qualitative image visualization, cumulative images of the dynamic data (30 to 60 min) were also iteratively reconstructed (OSEM3D).
Kinetic analysis of PET data was performed applying a standard two-tissue irreversible compartmental model to fit each tumor TAC with the corresponding image-derived plasma TAC as input function (IF) to estimate K1 (mL/cm^3/min), k2, (1/min) and k3 (1/min) and the blood vascular component Vb (mL blood/mL tissue; unitless). The irreversible uptake rate Ki (mL/cm^3/min) was computed as K1×k3/(k2+k3). To estimate the kinetic parameters the measured tumor TAC (tTAC) was modeled as tTAC(t)=(1−Vb)h(t)⊗IF(t)+VbIF(t) with h(t) indicating the unknown tissue impulse function and ⊗ the convolution operator. The parameter vector p=[K1, k2, k3, Vb] was estimated with the standard Weighted Non-Linear Least Squares (WNLLS) by minimizing the Weighted Residual Sum of Squares (WRSS) function

SKOV-3 cells = assay: In vitro uptake assay in SKOV-3 cells (blocking, siRNA, drug treatment, specific activity); type: cell-based, human
Description: For siRNA-mediated HER2 knockdown, SKOV-3 cells were transfected with 25 nM scramble control (SCR; Dharmacon, Lafayette, Colo., ON-TARGETplus Non-targeting Pool, Cat. Nr: D-001810-10-05) or HER2-targeting siRNA (Invitrogen ERBB2 Silencer® Select Validated siRNA; Cat. Nr: 4457298) by reverse wet transfection with Lipofectamine RNAiMAX (Invitrogen) according to manufacturer's instructions. 3×10^5 cells were seeded in 12-well plates 48 h prior to uptake experiment. Target knockdown was verified by western blotting on cells that were transfected in parallel.
For all uptake studies in response to drug treatment, 2.5×10^5 SKOV-3 cells were seeded in complete medium 48 h prior to uptake experiments.
For baseline uptake in HER2 positive or negative lineages, 3×10^5 cells were seeded in complete media in 12-well plates (Corning, Tewksbury Mass.) and allowed to recover overnight. Cells were washed twice with serum-free medium and pulsed with 370 KBq in 500 μL serum-free medium for one h. For blocking studies, cells were co-incubated with tracer and 0.5 mg/mL cold unlabeled [^19F]GE-226[SEQ ID NO 1].
Cells were washed with PBS, trypsinized, neutralized with complete medium and centrifuged. The pellet was washed three times with PBS and lysed in 120 μL RIPA buffer (Sigma-Aldrich). The radioactivity of 100 μL lysate was counted on a Packard Cobra II gamma counter (Perkin Elmer). Radioactivity was normalized to applied radioactivity and protein content, which was determined for each sample by BCA assay (Pierce, Rockford, Ill.).

| Substance | NUV60 (SKOV-3 xenografts; PET, 60 minutes) [% ID/mL] | tumor tracer uptake at 2 h (SKOV-3 xenografts; SKOV-3 xenografts, 2 h versus 1 h) | Ki (net irreversible uptake rate) (SKOV-3 xenografts; two-tissue irreversible compartmental model) [mL/cm^3/min] | tracer uptake in comparison to freshly prepared tracer (SKOV-3 cells; incubation initiated 70 minutes later (specific activity)) [%] | tracer uptake in comparison to freshly prepared tracer (SKOV-3 cells; incubation initiated 140 minutes later (specific activity)) [%] | NUV60 of [18F]GE-226 in blocked tumors (SKOV-3 xenografts; 30 mg/kg [19F]GE-226 i.v. 20 minutes prior to PET scan) [% ID/mL] | reduction of [18F]GE-226 uptake by blocking (SKOV-3 cells; co-incubation with 0.5 mg/mL cold [19F]GE-226, 60 minutes) [%] | [18F]GE-226 uptake compared to control cells (100±12%) (SKOV-3 cells; co-incubation with large excess of 19F analogue) [%] |
| --- | --- | --- | --- | --- | --- | --- | --- | --- |
| [^18F]GE-226: HER2-binding 18F-radiolabelled Affibody molecule ZHER2:2891 | 18.7±2.4 | higher at 2 h | 0.036±0.0065 | 39.5±8.5 | 24.9±3.8 | – | – | – |
| [^19F]GE-226: cold unlabeled non-radioactive 19F analogue of the tracer, used for SPR and blocking | – | – | – | – | – | 7.1±1.6 | 96.8±2.6 | 3.1±2.6 |
